Measurements from article PMC8501799, “Constitutive signal bias mediated by the human GHRHR splice variant 1” (Proceedings of the National Academy of Sciences of the …, 2021).

Columns and labels:
Assay in all cases: cAMP accumulation
Type in all cases: cell-based
GHRHR F82A = molecular target: T1, GHRHR F82A (Homo sapiens, UniProt Q02643, F82A); conditions: Table S2, mean ± SEM
T1 construct: expressed in transfected cells; host or cells: HEK293T
Description: (§1) GHRH-stimulated cAMP accumulation was measured by a LANCE Ultra cAMP kit (PerkinElmer). Briefly, HEK293T cells (24 h after transfection with SV1 or GHRHR) or prostate cancer cells were digested by 0.2% (wt/vol) EDTA and washed once with Dulbecco’s phosphate-buffered saline (PBS). Cells were then resuspended with stimulation buffer (Hanks’ balanced salt solution [HBSS] supplemented with 5 mM HEPES, 0.5 mM IBMX, and 0.1% [wt/vol] bovine serum albumin [BSA], pH 7.4) to a density of 0.6 million cells per milliliter and added to 384-well white plates (3,000 cells per well). […] The reaction was stopped by adding 5 μL Eu-cAMP tracer and 5 μL ULight-anti-cAMP. After 1 h RT incubation, TR-FRET signals (excitation: 320 nm, emission: 615 and 665 nm) were measured by an Envision plate reader (PerkinElmer). cAMP concentrations were interpolated by a standard curve.
(§2) All functional study data were analyzed using Prism 7 (GraphPad) and presented as means ± SEM from at least three independent experiments. Concentration-response curves were evaluated with a three-parameter logistic equation. The significance was determined with either two-tailed Student’s t test or one-way ANOVA, and P < 0.05 is considered statistically significant.
(§3) Table S2. Effects of residue mutation or truncation in the ECD of GHRHR on GHRH-induced cAMP […]
(§4) Mutant pEC50 Emax (% WT GHRHR) expression ΔLog (τ/KA) […]
(§5) cAMP accumulation data were analyzed using a three-parameter logistic equation to determine pEC50 and Emax values. pEC50 is the negative logarithm of the molar concentration of agonist that induced half the maximal response. Emax for mutants is expressed as a percentage of the WT GHRHR. Data were analyzed by nonlinear regression using the operational model equation to determine t he logR values (logτ/KA, i.e., logarithm of the transduction ratio). τ is the effi cacy value of the agonist and was corrected by cell surface expression of the receptor. KA is dissociation constant. Changes in transduction ratio (ΔlogR) were calculated to determine the relative effectiveness of the mutants. All values are means ± S.E.M. of at le ast three ind ep en dent experiments (n = 3-5) conducted in quadruplicate. Statistical analysis was carried out by comparing the control responses in the WT GHRHR. **, P < 0.01 and ***, P < 0.001, determined by one-way

GHRHR F85A = molecular target: T2, GHRHR F85A (Homo sapiens, UniProt Q02643, F85A); conditions: Table S2, mean ± SEM
T2 construct: expressed in transfected cells; host or cells: HEK293T
Description: as §1, §2, §3, §4, §5

GHRHR L34A = molecular target: T3, GHRHR L34A (Homo sapiens, UniProt Q02643, L34A); conditions: Table S2, mean ± SEM
T3 construct: expressed in transfected cells; host or cells: HEK293T
Description: as §1, §2, §3, §4, §5

[1] = molecular target: T4, GHRHR L34A-L62A-F82A-F85A (Homo sapiens, UniProt Q02643, F82A/F85A/L34A/L62A); conditions: Table S2, mean ± SEM
T4 construct: expressed in transfected cells; host or cells: HEK293T
Description: as §1, §2, §3, §4, §5

GHRHR L62A = molecular target: T5, GHRHR L62A (Homo sapiens, UniProt Q02643, L62A); conditions: Table S2, mean ± SEM
T5 construct: expressed in transfected cells; host or cells: HEK293T
Description: as §1, §2, §3, §4, §5

GHRHR Δ102 = molecular target: T6, GHRHR Δ102 (Homo sapiens, UniProt Q02643); conditions: Table S2, mean ± SEM
T6 construct: expressed in transfected cells; host or cells: HEK293T
Description: as §1, §2, §3, §4, §5

GHRHR Δ112 = molecular target: T7, GHRHR Δ112 (Homo sapiens, UniProt Q02643); conditions: Table S2, mean ± SEM
T7 construct: expressed in transfected cells; host or cells: HEK293T
Description: as §1, §2, §3, §4, §5

GHRHR Δ42 = molecular target: T8, GHRHR Δ42 (Homo sapiens, UniProt Q02643); conditions: Table S2, mean ± SEM
T8 construct: expressed in transfected cells; host or cells: HEK293T
Description: as §1, §2, §3, §4, §5

GHRHR Δ52 = molecular target: T9, GHRHR Δ52 (Homo sapiens, UniProt Q02643); conditions: Table S2, mean ± SEM
T9 construct: expressed in transfected cells; host or cells: HEK293T
Description: as §1, §2, §3, §4, §5

GHRHR Δ62 = molecular target: T10, GHRHR Δ62 (Homo sapiens, UniProt Q02643); conditions: Table S2, mean ± SEM
T10 construct: expressed in transfected cells; host or cells: HEK293T
Description: as §1, §2, §3, §4, §5

GHRHR Δ72 = molecular target: T11, GHRHR Δ72 (Homo sapiens, UniProt Q02643); conditions: Table S2, mean ± SEM
T11 construct: expressed in transfected cells; host or cells: HEK293T
Description: as §1, §2, §3, §4, §5

GHRHR Δ82 = molecular target: T12, GHRHR Δ82 (Homo sapiens, UniProt Q02643); conditions: Table S2, mean ± SEM
T12 construct: expressed in transfected cells; host or cells: HEK293T
Description: as §1, §2, §3, §4, §5

GHRHR Δ89 = molecular target: T13, GHRHR Δ89 (Homo sapiens, UniProt Q02643)
T13 construct: expressed in transfected cells; host or cells: HEK293T
T13 sequence (Q02643 90-423): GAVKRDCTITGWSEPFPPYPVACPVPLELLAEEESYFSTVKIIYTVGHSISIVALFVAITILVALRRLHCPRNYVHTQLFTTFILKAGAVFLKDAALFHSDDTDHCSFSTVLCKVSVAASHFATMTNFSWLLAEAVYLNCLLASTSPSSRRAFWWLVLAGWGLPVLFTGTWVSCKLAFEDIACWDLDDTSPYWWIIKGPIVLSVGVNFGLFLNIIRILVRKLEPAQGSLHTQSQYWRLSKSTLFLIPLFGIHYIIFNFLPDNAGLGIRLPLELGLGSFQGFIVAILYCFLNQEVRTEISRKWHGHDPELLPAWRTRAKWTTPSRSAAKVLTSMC
Description: as §1, §2, §3, §4, §5

GHRHR Δ92 = molecular target: T14, GHRHR Δ92 (Homo sapiens, UniProt Q02643); conditions: Table S2, mean ± SEM
T14 construct: expressed in transfected cells; host or cells: HEK293T
Description: as §1, §2, §3, §4, §5

[2] = HEK-293T, HEK293T, n = 3-5 in quadruplicate
[3] = operational model, τ corrected by cell surface expression, relative to WT GHRHR

T3 sequence (Q02643 23-423 L34A): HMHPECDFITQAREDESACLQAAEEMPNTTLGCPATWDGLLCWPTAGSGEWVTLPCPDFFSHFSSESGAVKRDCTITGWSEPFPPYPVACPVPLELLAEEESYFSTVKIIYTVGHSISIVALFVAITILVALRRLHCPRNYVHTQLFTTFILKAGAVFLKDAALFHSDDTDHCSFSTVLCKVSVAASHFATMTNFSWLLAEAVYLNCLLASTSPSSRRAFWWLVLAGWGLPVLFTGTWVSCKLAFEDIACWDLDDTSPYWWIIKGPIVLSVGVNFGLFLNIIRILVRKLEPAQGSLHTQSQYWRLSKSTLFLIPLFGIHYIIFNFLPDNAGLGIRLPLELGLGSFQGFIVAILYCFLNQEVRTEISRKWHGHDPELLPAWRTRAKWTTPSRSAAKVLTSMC
T9 sequence (Q02643 53-423 limits assumed, stated change not applied): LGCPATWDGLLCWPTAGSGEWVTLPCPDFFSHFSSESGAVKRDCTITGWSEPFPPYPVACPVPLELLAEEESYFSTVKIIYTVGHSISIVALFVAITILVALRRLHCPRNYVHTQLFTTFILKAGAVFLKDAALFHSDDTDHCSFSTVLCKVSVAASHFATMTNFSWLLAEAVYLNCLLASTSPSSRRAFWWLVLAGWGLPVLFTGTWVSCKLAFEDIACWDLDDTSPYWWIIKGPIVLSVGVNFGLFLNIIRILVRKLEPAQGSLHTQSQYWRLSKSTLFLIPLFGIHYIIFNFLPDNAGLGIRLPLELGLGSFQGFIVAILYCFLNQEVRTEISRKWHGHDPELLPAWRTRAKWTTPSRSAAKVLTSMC
T12 sequence (Q02643 83-423 limits assumed, stated change not applied): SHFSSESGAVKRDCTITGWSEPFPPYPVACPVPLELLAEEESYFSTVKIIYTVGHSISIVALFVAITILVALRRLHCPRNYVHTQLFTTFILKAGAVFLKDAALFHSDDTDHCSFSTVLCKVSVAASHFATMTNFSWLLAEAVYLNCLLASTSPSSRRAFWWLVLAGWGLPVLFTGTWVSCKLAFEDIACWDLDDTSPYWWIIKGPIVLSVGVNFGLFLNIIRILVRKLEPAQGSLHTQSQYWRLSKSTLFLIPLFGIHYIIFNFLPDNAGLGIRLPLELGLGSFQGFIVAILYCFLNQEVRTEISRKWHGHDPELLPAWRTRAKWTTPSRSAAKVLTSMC
T10 sequence (Q02643 63-423 limits assumed, stated change not applied): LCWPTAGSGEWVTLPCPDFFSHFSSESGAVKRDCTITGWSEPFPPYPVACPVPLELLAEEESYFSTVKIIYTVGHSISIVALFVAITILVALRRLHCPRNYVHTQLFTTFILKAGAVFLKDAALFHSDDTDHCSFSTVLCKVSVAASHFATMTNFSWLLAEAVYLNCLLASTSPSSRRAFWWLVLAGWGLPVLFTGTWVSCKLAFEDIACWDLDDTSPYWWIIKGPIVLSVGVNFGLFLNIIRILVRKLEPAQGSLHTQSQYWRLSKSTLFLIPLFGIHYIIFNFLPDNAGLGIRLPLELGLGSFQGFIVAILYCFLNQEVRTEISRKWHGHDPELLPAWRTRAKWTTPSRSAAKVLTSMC
T4 sequence (Q02643 23-423 L34A/L62A/F82A/F85A): as the sequence (Q02643 23-423 L34A) above, with L40A, F60A, F63A counted along it
T5 sequence (Q02643 23-423 L62A): as the sequence (Q02643 23-423 L34A) above, with A12L, L40A counted along it
T2 sequence (Q02643 23-423 F85A): as the sequence (Q02643 23-423 L34A) above, with A12L, F63A counted along it
T1 sequence (Q02643 23-423 F82A): as the sequence (Q02643 23-423 L34A) above, with A12L, F60A counted along it
T8 sequence (Q02643 43-423 limits assumed, stated change not applied): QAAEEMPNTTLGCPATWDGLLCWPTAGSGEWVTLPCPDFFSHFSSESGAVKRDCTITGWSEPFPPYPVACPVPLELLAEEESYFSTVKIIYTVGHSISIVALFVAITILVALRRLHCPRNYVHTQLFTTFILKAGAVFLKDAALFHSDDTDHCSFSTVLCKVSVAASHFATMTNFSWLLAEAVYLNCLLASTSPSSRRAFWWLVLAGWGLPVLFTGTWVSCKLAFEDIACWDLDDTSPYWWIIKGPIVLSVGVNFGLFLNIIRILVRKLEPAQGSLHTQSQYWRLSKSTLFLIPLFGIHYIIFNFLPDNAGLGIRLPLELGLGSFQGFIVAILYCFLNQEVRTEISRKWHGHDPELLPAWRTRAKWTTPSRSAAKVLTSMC
T11 sequence (Q02643 73-423 limits assumed, stated change not applied): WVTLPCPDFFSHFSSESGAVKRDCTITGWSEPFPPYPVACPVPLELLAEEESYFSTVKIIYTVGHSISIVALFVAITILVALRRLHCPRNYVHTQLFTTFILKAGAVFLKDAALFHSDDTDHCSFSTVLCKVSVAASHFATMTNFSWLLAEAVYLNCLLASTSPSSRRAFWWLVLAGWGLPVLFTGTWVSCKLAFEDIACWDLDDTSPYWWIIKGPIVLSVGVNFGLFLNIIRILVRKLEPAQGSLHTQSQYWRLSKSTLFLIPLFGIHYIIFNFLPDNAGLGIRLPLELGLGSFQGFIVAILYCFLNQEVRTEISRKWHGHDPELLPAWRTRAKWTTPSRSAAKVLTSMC

SMILES: CC[C@H](C)[C@H](NC(=O)[C@H](C)NC(=O)[C@H](CC(=O)O)NC(=O)[C@H](C)NC(=O)[C@@H](N)Cc1ccc(O)cc1)C(=O)N[C@@H](Cc1ccccc1)C(=O)N[C@H](C(=O)N[C@@H](CC(N)=O)C(=O)N[C@@H](CO)C(=O)N[C@@H](Cc1ccc(O)cc1)C(=O)N[C@@H](CCCNC(=N)N)C(=O)N[C@@H](CCCCN)C(=O)N[C@H](C(=O)N[C@@H](CC(C)C)C(=O)NCC(=O)N[C@@H](CCC(N)=O)C(=O)N[C@@H](CC(C)C)C(=O)N[C@@H](CO)C(=O)N[C@@H](C)C(=O)N[C@@H](CCCNC(=N)N)C(=O)N[C@@H](CCCCN)C(=O)N[C@@H](CC(C)C)C(=O)N[C@@H](CC(C)C)C(=O)N[C@@H](CCC(N)=O)C(=O)N[C@@H](CC(=O)O)C(=O)N[C@H](C(=O)N[C@@H](CCSC)C(=O)N[C@@H](CO)C(=O)N[C@@H](CCCNC(=N)N)C(=O)N[C@@H](CCC(N)=O)C(=O)N[C@@H](CCC(N)=O)C(=O)NCC(=O)N[C@@H](CCC(=O)O)C(=O)N[C@@H](CO)C(=O)N[C@@H](CC(N)=O)C(=O)N[C@@H](CCC(N)=O)C(=O)N[C@@H](CCC(=O)O)C(=O)N[C@@H](CCCNC(=N)N)C(=O)NCC(=O)N[C@@H](C)C(=O)N[C@@H](CCCNC(=N)N)C(=O)N[C@@H](C)C(=O)N[C@@H](CCCNC(=N)N)C(=O)N[C@@H](CC(C)C)C(N)=O)[C@@H](C)CC)C(C)C)[C@@H](C)O [GHRH, growth hormone–releasing hormone]
- Emax (GHRHR F82A; [2]): 99.8 ± 1.36%
- ΔLog (τ/KA) (GHRHR F82A; [3]): -0.53 ± 0.05
- Emax (GHRHR F85A; [2]): 100 ± 1.69%
- ΔLog (τ/KA) (GHRHR F85A; [3]): -0.27 ± 0.04
- Emax (GHRHR L34A; [2]): 101 ± 2.23%
- ΔLog (τ/KA) (GHRHR L34A; [3]): -0.78 ± 0.06
- Emax [1, 2]: 105 ± 5.52%
- ΔLog (τ/KA) [1, 3]: -4.07 ± 0.04
- Emax (GHRHR L62A; [2]): 98 ± 2%
- ΔLog (τ/KA) (GHRHR L62A; [3]): -1.03 ± 0.04
- Emax (GHRHR Δ102; [2]): 107 ± 2.15%
- ΔLog (τ/KA) (GHRHR Δ102; [3]): -3.55 ± 0.02
- Emax (GHRHR Δ112; [2]): 106 ± 2.34%
- ΔLog (τ/KA) (GHRHR Δ112; [3]): -3.65 ± 0.02
- Emax (GHRHR Δ42; [2]): 104 ± 1.53%
- ΔLog (τ/KA) (GHRHR Δ42; [3]): -2.86 ± 0.02
- Emax (GHRHR Δ52; [2]): 106 ± 1.62%
- ΔLog (τ/KA) (GHRHR Δ52; [3]): -2.83 ± 0.03
- Emax (GHRHR Δ62; [2]): 104 ± 2.19%
- ΔLog (τ/KA) (GHRHR Δ62; [3]): -3.05 ± 0.03
- Emax (GHRHR Δ72; [2]): 104 ± 2.57%
- ΔLog (τ/KA) (GHRHR Δ72; [3]): -2.98 ± 0.04
- Emax (GHRHR Δ82; [2]): 104 ± 2.51%
- ΔLog (τ/KA) (GHRHR Δ82; [3]): -3.14 ± 0.03
- cAMP responses after removal of the N-terminal 89 residues (GHRHR Δ89; HEK293T, Fig. 1B): diminished cAMP responses
- Emax (GHRHR Δ89; HEK-293T, Table S2, HEK293T, mean ± SEM, n = 3-5 in quadruplicate): 106 ± 2.48%
- ΔLog (τ/KA) (GHRHR Δ89; Table S2, operational model, τ corrected by cell surface expression, relative to WT GHRHR, mean ± SEM): -3.28 ± 0.03
- Emax (GHRHR Δ92; [2]): 106 ± 2.38%
- ΔLog (τ/KA) (GHRHR Δ92; [3]): -3.78 ± 0.03
